± gives the expanded uncertainty stated by the source.
Key:
[1] = xn = mol fraction of the nth substance listed; settings: x2 = 0; for surface tension liquid-gas: Ring tensiometer; for mass density: 101 kPa, Liquid
[2] = for surface tension liquid-gas: Ring tensiometer; for mass density: 101 kPa, Liquid

Row | Structure (SMILES) | surface tension liquid-gas ([2]; 278.15 K) [mN/m] | mass density ([2]; 278.15 K) [kg/m3] | surface tension liquid-gas ([2]; 283.15 K) [mN/m] | mass density ([2]; 283.15 K) [kg/m3] | surface tension liquid-gas ([2]; 288.15 K) [mN/m] | mass density ([2]; 288.15 K) [kg/m3] | surface tension liquid-gas ([2]; 293.15 K) [mN/m] | mass density ([2]; 293.15 K) [kg/m3] | surface tension liquid-gas ([2]; 298.15 K) [mN/m] | mass density ([2]; 298.15 K) [kg/m3] | surface tension liquid-gas ([2]; 303.15 K) [mN/m] | mass density ([2]; 303.15 K) [kg/m3] | surface tension liquid-gas ([2]; 308.15 K) [mN/m] | mass density ([2]; 308.15 K) [kg/m3] | surface tension liquid-gas ([2]; 313.15 K) [mN/m] | mass density ([2]; 313.15 K) [kg/m3] | further results
1 | CCCO [propan-1-ol] + CC#N |  |  |  |  |  |  |  |  |  |  |  |  |  |  |  |  | surface tension liquid-gas ([1]; 278.15 K): 24.9 ± 0.4 mN/m; mass density ([1]; 278.15 K): 816.3 ± 1.8 kg/m3; surface tension liquid-gas ([1]; 283.15 K): 24.5 ± 0.4 mN/m; mass density ([1]; 283.15 K): 812.4 ± 1.8 kg/m3; surface tension liquid-gas ([1]; 288.15 K): 24.1 ± 0.4 mN/m; mass density ([1]; 288.15 K): 808.6 ± 1.8 kg/m3; surface tension liquid-gas ([1]; 293.15 K): 23.7 ± 0.4 mN/m; mass density ([1]; 293.15 K): 803.61 ± 1.9 kg/m3; surface tension liquid-gas ([1]; 298.15 K): 23.3 ± 0.4 mN/m; mass density ([1]; 298.15 K): 799.58 ± 1.9 kg/m3; surface tension liquid-gas ([1]; 303.15 K): 22.9 ± 0.4 mN/m; mass density ([1]; 303.15 K): 795.48 ± 1.9 kg/m3; surface tension liquid-gas ([1]; 308.15 K): 22.5 ± 0.4 mN/m; mass density ([1]; 308.15 K): 792.8 ± 1.9 kg/m3; surface tension liquid-gas ([1]; 313.15 K): 22.2 ± 0.4 mN/m; mass density ([1]; 313.15 K): 787.02 ± 1.9 kg/m3
2 | CCCO [propan-1-ol] | 24.9 ± 0.4 | 816.3 ± 1.8 | 24.5 ± 0.4 | 812.4 ± 1.8 | 24.1 ± 0.4 | 808.6 ± 1.8 | 23.7 ± 0.4 | 803.61 ± 1.9 | 23.3 ± 0.4 | 799.58 ± 1.9 | 22.9 ± 0.4 | 795.48 ± 1.9 | 22.5 ± 0.4 | 792.8 ± 1.9 | 22.2 ± 0.4 | 787.02 ± 1.9 | 
3 | CC#N [acetonitrile] | 30.5 ± 0.5 | 793.3 ± 1.9 | 30.1 ± 0.5 | 788.8 ± 1.9 | 29.7 ± 0.5 | 784.3 ± 2 | 29.3 ± 0.5 | 778.3 ± 2 | 28.9 ± 0.5 | 776.75 ± 2 | 28.5 ± 0.4 | 771.5 ± 2 | 28.1 ± 0.4 | 766.3 ± 2.1 | 27.7 ± 0.4 | 761 ± 2.1 | 
